Laboratory results published in a melting point compilation (Tetko et al.; mined from patent text by program, amines drawn as free bases though some values may be those of a salt).

Row | Compound | melting point
1 | CC=CC(=O)CS(=O)(=O)C(c1ccc(Cl)cc1)c1ccc(Cl)cc1 | 114 to 116 °C
2 | CCOC(=O)C(CC(=O)c1ccc(OC)cc1)(NC(C)=O)C(=O)OCC | 120 to 122 °C
3 | Cc1ccc(-c2ccc3ccccc3c2C(=O)N(C)C)cc1 | 145 to 146 °C
4 | CN1CCC(c2c[nH]c3ccc(OS(=O)(=O)c4ccc(Cl)cc4)cc23)CC1 | 182 to 184 °C
5 | NC(=O)c1ccc(O)c(I)c1 | 90 to 95 °C
6 | Cc1ccc(OC2CCN(C(=O)C(=O)Nc3ccc4[nH]c(=O)oc4c3)CC2)cc1 | 203 °C
7 | CCCCCCCCCCCCCc1c(C(F)(F)F)noc1NS(=O)(=O)c1ccc(-c2ccccc2)cc1 | 115 to 116 °C
8 | CCN1CCC2(c3cccc(O)c3)Cc3[nH]c(C(=O)N(CC)CC)c(C)c3CC2C1 (centres undefined) | 221 to 223 °C
9 | CCN(CC)C(=O)C=C1C=C(C(C)(C)C)C(=O)C(C(C)(C)C)=C1 | 109 to 110 °C
10 | CC(=O)N1CCc2cc(CC(C)N)cc(C#N)c21 (centres undefined) | 94 to 96 °C
11 | Cc1[nH]c(-c2ccccc2)nc1-c1ccc(Cl)cc1Cl | 222 to 224 °C
12 | Cc1c(-c2ccccc2Cl)n(-c2ccccc2Cl)c(-c2ccccc2Cl)cc1=O | 205 to 207 °C
13 | O=C1CCN(C(=O)c2cc(C(F)(F)F)cc(C(F)(F)F)c2)CC1 | 155 to 157 °C
14 | CC(C)C1Sc2ccccc2N(CC(=O)O)C1=S (centres undefined) | 175 to 176 °C
15 | O=C(O)C1C=CCn2c(=O)n(CCS)c(=O)n21 (centres undefined) | 156 to 158 °C
16 | Cc1nccn1-c1cc(N)cc(C(F)(F)F)c1 | 127 to 131 °C
17 | CC1=CCc2cccc(OCC3CN(C(C)C)CCO3)c21 (centres undefined) | 114 to 116 °C
18 | Cc1cc(SC(C)C)c(NC(=O)CCCSc2nc3c(C)c(Cl)cc(C(C)C)c3o2)c(SC(C)C)n1 | 141 to 143 °C
19 | Cc1c(CC(=O)O)oc2ccccc12 | 108 °C
20 | O=[N+]([O-])c1cnn(-c2c(Cl)cc(C(F)(F)F)c(Cl)c2Cl)c1Br | 97 to 99 °C
21 | Cc1cc(-c2ccc(Cl)cc2)cn2c(C(=O)O)cnc12 | 228 °C
22 | CC(=O)NC1(c2ccccc2)CC1 | 94 to 95 °C

Row | Compound | melting point
23 | C[C@@H]1CN(c2ccc([N+](=O)[O-])cc2C#N)C[C@H](C)N1 | 109 to 110 °C
24 | Cc1ccc(Cn2nc(C(=O)O)cc2-c2ccc(Cl)c(C)c2)cc1 | 180 °C
25 | Cc1nc(Cl)c2c(c1O)COC2(c1ccccc1)c1cccc(Cl)c1Cl (centres undefined) | 221 °C
26 | O=C(Cc1ccc(F)cc1)N1CCN(Cc2ccccc2)CC1 | 99 to 101 °C
27 | COc1cccc(OC)c1C(=O)P(=O)(CC(C)C)C(=O)c1c(C)cc(C)cc1C (centres undefined) | 105 to 106 °C
28 | O=C(CBr)c1ccc2oc3ccc(C(=O)CBr)cc3c(=O)c2c1 | 209 to 210 °C
29 | CC(C)c1cccc(C(C)C)c1N1C(=O)c2ccccc2C1=O | 172 °C
30 | Cc1ccc(-n2nc3c4cc(CCc5ccccc5)ccc4[nH]c(=O)n3c2=O)cc1 | 303 °C
31 | CN(C)C(c1cccc(F)c1)C1CCC(C=O)CC1 (centres undefined) | 40 to 43 °C
32 | CSc1ccc(C(=O)COc2ccc(F)cc2F)cc1 | 70 to 71 °C
33 | CCOC(=O)CCCCOc1ccc([N+](=O)[O-])c(C=C2C(=O)NC(=O)N2C)c1 | 121 to 123 °C
34 | FC(F)(F)c1[nH]c(-c2cccc(Cl)c2)nc1Br | 137 to 144 °C
35 | CC(C(=O)O)c1ccc(N2C(=O)C3CCCCC3C2=O)cc1 (centres undefined) | 224 to 226 °C
36 | N#Cn1nc(-c2ccccc2)c(=O)cc1Br | 152 to 155 °C
37 | CC(C)Oc1cccc(NC(=O)OC(C)(C)C)c1 | 79 to 81 °C
38 | COc1ccc2c(c1)C(CCC(C)C)(C(F)(F)F)OCC(=O)N2 (centres undefined) | 123 to 130 °C
39 | CC(=O)n1ncc2c(OCc3ccccc3)cccc21 | 97 °C
40 | CCc1c(CO)nc(-c2ccc(OC)c(OC)c2)c2cc(OC)c(OC)cc12 | 160 to 163 °C
41 | COc1ccc(N2C(=O)C(C)N(c3ccc(Cc4ccccc4)cc3)C2=S)cc1 (centres undefined) | 122 °C
42 | C=C(Cl)C[C@H](CC(=O)O)C(=O)N[C@@H](CC1CCCCC1)[C@@H](O)[C@@H](O)CC(C)C | 193 to 196 °C
43 | O=C(O)c1cccc2c(-c3ccccc3)coc12 | 220 to 222 °C
44 | CCCCCCCCCCc1nnnn1CC(=O)O | 104 to 106 °C

Continued, values first:

Row | melting point | Compound
45 | 178 to 181 °C | Cc1c(C)c(N2C(=O)c3cc(Cl)c(Cl)cc3C2=O)c(C)c2c1OC(C)(C)C2c1ccccc1 (centres undefined)
46 | 159 °C | CCCCCCCNC(=O)N(C)c1ccc(C)c(-c2ccc(C=CC(=O)O)cc2)c1
47 | 106 to 108 °C | O=C1NC(=O)C(c2ccccc2Cl)O1 (centres undefined)
48 | 141 °C | CC(C)(Oc1ccc(C2CCOCC2)cc1Cl)C(=O)O
49 | 150 to 151 °C | Cc1cn(N=Cc2cc(C(C)(C)C)c(O)c(C(C)(C)C)c2)cn1
50 | 109 to 110 °C | CC=CCn1c(C)c(C)c2cnnc(OCc3ccc(OC(F)F)cc3)c21
51 | 81 to 82 °C | O=C(O)c1cc(F)c(F)c(F)n1
52 | 142 to 144 °C | CC1CC(C)CN(CN2C(=O)CN(CC(C)N3CC(=O)N(CN4CC(C)CC(C)C4)C(=O)C3)CC2=O)C1 (centres undefined)
53 | 181 to 183 °C | CC(C)C(C(N)=O)N(C)C(=O)OC(C)(C)C (centres undefined)
54 | 125 to 135 °C | Cc1cccc(-c2ccccc2)c1C(=O)c1sc(Nc2ccc(N3CCOCC3)cc2)nc1N
55 | 221 to 222 °C | NC(=O)c1nnn(Cc2ccc(Cl)c(Cl)c2)c1N
56 | 184 °C | CN1CCN(CCCNc2nc(N)c(C(=O)c3ccc(Cl)s3)s2)CC1
57 | 238 to 240 °C | COC(=O)c1cc2c(O)c(C(=O)NCc3ccc(Cl)cc3)cnc2s1
58 | 159 to 160 °C | O=c1ccn(-c2cccc(OC(F)F)c2)nc1-c1ccnn1-c1ccccc1
59 | 141 °C | C=C(Cc1ccccc1)C(=O)NN1CCSCC1
60 | 99 to 100 °C | COc1cc(C=O)ccc1OCC(=O)c1cc(C(C)(C)C)c(O)c(C(C)(C)C)c1
61 | 122 °C | Cn1nnc(CC[C@H]2CC[C@@H](c3ccc(F)cc3)N2S(=O)(=O)c2ccc(Cl)cc2)n1 (racemic)
62 | 166 to 167 °C | COC(=O)C(C)(C)Cc1c(SC(C)(C)C)c2cc(OCc3ccc4ccccc4n3)ccc2n1Cc1ccc(Cl)cc1
63 | 123 to 124 °C | CC(=O)NC(=O)CSC(=O)Cc1ccccc1
64 | 94 to 95 °C | CCCC(=O)c1nc(CCC)[nH]c1C#N

Row | melting point | Compound
65 | 166 °C | CCCCc1nc(I)c(CO)[nH]1
66 | 168 to 170 °C | COC(=O)C1=Cc2cc(-c3ccc(Cl)cc3)ccc2S(=O)(=O)CC1
67 | 110 to 111 °C | CCc1cccc(CC)c1N(CCCC(=O)O)C(=O)CCN(C(C)=O)c1c(C)cccc1C
68 | 180 to 185 °C | O=C(Nc1ccc(O)cc1)c1ccc(O)cc1
69 | 141 to 144 °C | Clc1ccc2ccc(/C=C/c3cccc(CN4CCc5cccc(CCc6nnn[nH]6)c54)c3)nc2c1
70 | 66 to 67 °C | CC(=O)/C=C(\C)c1ccc(-c2ccccc2)c(Cl)c1
71 | 95 to 115 °C | NCCC(O)(c1ccc(Br)cc1)c1cccnc1 (centres undefined)
72 | 100 to 101 °C | O=C(CSc1ncccn1)C12CC3CC(CC(C3)C1)C2
73 | 140 to 142 °C | N#Cc1cc2c(Oc3ccc(Cl)cc3)cncc2s1
74 | 105 to 106 °C | COC(=O)c1cccc(-c2nc(COc3ccc(CO)cc3)c(C)o2)c1
75 | 145 to 150 °C | CCOC(=O)c1ccc(Nc2ccc([N+](=O)[O-])cc2N)cc1
76 | 201 to 203 °C | Cc1cc2c(nc3n2CCC3)c([N+](=O)[O-])c1Br
77 | 152 to 155 °C | CCCCCOc1cc(C(=O)O)cc(S(N)(=O)=O)c1-c1ccccc1
78 | 91 to 94 °C | CC(=O)NCc1cccc(CCCOCCCCCCNCC(O)c2cc(Cl)c(N)c(Cl)c2)c1 (centres undefined)
79 | 135 to 137 °C | CN(C)C(=O)C(CCO)C1CCc2[nH]c3ccccc3c21 (centres undefined)
80 | 158 to 160 °C | CCCCCCC(C)N(Cc1ccc(CC(C)(C)C)cc1)C(Nc1cc(C(C)(C)C)c(O)c(C(C)(C)C)c1)=C1C(=O)COC1=O (centres undefined)
81 | 195 to 196 °C | CC(C)(C)NCC(O)COc1ccc2nc(S(N)(=O)=O)sc2c1 (centres undefined)
82 | 223 to 225 °C | O=c1[nH]nc2n1-c1ccc(Cl)cc1C(c1ccccc1F)=CC2
83 | 95 to 97 °C | CC(NC(=O)C(N)Cc1ccccc1)C(N)=O (centres undefined)
84 | 195 to 198 °C | CCOC(=O)c1cc(-c2ccc(Cl)cc2)c(Cl)nc1N

Row | melting point | Compound
85 | 174 to 177 °C | N#Cc1ccc(/C=C/C=C/C=O)c(F)c1
86 | 112 to 114 °C | CC(=O)SC[C@H](NC(=O)C(C)C)C(=O)NCCSC(=O)C(C)(C)C
87 | 109 to 110 °C | CCSC(F)(F)C(O)(Cn1cncn1)c1ccc(F)cc1F (centres undefined)
88 | 68 to 69 °C | CCOC(=O)Cc1nc2cc(C)ccc2o1
89 | 248 to 251 °C | CSc1nc(C)c(Cc2ccc(Cl)cc2)c(=O)[nH]1
90 | 229 to 230 °C | Cc1cc(C)c([N+](=O)[O-])cc1NC(=O)CC#N
91 | 36 to 46 °C | COc1ccc2nc(S(=O)Cc3nccc(OCC(F)(F)F)c3OC)[nH]c2c1 (centres undefined)
92 | 133 to 134 °C | Cc1c(-c2nc(-c3c(F)cccc3Cl)nn2C)csc1Br
93 | 205 to 207 °C | NC(=O)c1cccc2nccc(O)c12
94 | 129 to 130 °C | O=C(NCc1ccccc1Br)c1ccc2cnccc2n1
95 | 227 to 228 °C | O=C1c2ccc(O)cc2C(=O)C1c1ccc(O)cc1 (centres undefined)
96 | 222 to 224 °C | Cc1ccc(-c2c(-c3ccc(S(C)(=O)=O)cc3)cnn(-c3cccc(Cl)c3)c2=O)cc1
97 | 93 to 95 °C | CCCCOC(=O)NCCc1ccc(OCC(O)CNC(C)C)nc1 (centres undefined)
98 | 187 to 189 °C | CCC(OC(=O)CS(C)(=O)=O)c1ccc(Cl)c2nc3n(c12)CCCN3c1ccc(Cl)cc1Cl (centres undefined)
99 | 109 °C | CCC(CC)n1cc(C)nc(Nc2c(C)cc(C)cc2C)c1=O
100 | 238 to 239 °C | OCc1cc(Nc2nc(-c3ccccc3)nc3ccccc23)[nH]n1
101 | 188 to 193 °C | Cc1cccc(COc2cccc(OCc3ccc4ccc(Cl)cc4n3)c2)c1C(=O)O
102 | 113 to 114 °C | CC(=O)c1ccc(NS(C)(=O)=O)c(Oc2ccccc2)c1
103 | 148 to 152 °C | C#CC1=CCC2C3CCC4=CC(=O)CCC4C3CCC12C (centres undefined)
104 | 262 to 263 °C | COc1ccc(Nc2nc(-c3ccccc3)c(-c3nc4ccccc4c(=O)n3-c3ccc(Cl)cc3)s2)cc1
